The results in this text go back to US5512566A, “Tricyclic compounds having affinity for the 5-HT1A receptor” (priority 1993, dated 1996).

One assay addresses T1, dopamine D2 (Rattus norvegicus, UniProt P61169).
T1 construct: P2 fraction (synaptosomal membranes) prepared from male, Wistar rats; from tissue; host or cells: rat (Wistar, male) striatum, P2 synaptosomal membranes
Briefly: Receptor Binding Assay, dopamine D2 (3H-spiperone, P2 fraction from striatum). Details: species or system male, Wistar rats. The protocol: The dopamine D2 and serotonin 5-HT1A binding activity of compounds was determined using a P2 fraction (synaptosomal membranes) prepared from male, Wistar rats. The D2 assay employed a P2 fraction from the striatum, the ligand ^3 H-spiperone at a concentration of 0.05 nM, and […] haloperidol as a blank determinant. […].
(§1) The data from each assay were analyzed by calculating the percent inhibition of the binding of the tritiated ligands by given concentrations of the test compound. KI values, where given, were obtained from the logit analysis of concentration-inhibition curves.

In a further assay the target is T2, serotonin 5-HT1A (Rattus norvegicus, UniProt P19327).
T2 construct: P2 fraction (synaptosomal membranes) prepared from male, Wistar rats; from tissue; host or cells: rat (Wistar, male) cerebral cortex, P2 synaptosomal membranes
T2 sequence (P19327 1-422): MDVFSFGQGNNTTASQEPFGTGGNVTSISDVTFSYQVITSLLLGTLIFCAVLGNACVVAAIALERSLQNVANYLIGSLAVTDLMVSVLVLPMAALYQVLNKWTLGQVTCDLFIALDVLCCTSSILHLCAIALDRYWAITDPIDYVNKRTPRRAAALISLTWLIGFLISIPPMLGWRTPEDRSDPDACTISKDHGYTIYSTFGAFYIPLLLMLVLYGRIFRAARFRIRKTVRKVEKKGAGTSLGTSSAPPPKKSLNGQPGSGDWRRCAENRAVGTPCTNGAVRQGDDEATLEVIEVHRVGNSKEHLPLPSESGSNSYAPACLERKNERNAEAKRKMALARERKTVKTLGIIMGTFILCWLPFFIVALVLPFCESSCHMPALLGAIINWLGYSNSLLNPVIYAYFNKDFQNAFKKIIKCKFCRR
Kind of assay: Receptor Binding Assay, serotonin 5-HT1A (3H-8-hydroxy-DPAT, P2 fraction from cerebral cortex). As to conditions: known drugs, 3H-8-hydroxy-DPAT 3 nM, pH 7.5, 20 min, 25° C., read-out: KI values for some known drugs, 5-HT1A assay. The arrangement: species or system male, Wistar rats. The protocol: The dopamine D2 and serotonin 5-HT1A binding activity of compounds was determined using a P2 fraction (synaptosomal membranes) prepared from male, Wistar rats.
as §1

Where [1] appears, read: 3H-spiperone 0.05 nM, rat striatum P2 fraction, pH 7.5, 45 min, 37° C., read-out: Receptor Binding, Ki, D-2.

Structures can show the parent of a compound that is named as a salt. Where two headings read alike, the source gives them in different places.

T1 sequence (P61169 whole entry): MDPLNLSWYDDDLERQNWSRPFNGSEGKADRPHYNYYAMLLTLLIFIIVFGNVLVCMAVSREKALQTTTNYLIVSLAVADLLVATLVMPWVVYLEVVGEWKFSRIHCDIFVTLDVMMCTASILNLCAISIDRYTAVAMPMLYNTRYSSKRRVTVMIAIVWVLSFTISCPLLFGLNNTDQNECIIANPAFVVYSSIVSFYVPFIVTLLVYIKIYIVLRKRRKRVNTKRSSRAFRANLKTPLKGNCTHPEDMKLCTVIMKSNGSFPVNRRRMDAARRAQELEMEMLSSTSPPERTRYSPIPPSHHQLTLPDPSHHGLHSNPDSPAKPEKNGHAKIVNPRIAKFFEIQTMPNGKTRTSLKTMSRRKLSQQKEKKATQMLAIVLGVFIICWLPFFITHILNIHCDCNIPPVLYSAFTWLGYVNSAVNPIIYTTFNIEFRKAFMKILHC

`O=C(c1cccc(CN2CCN3c4ccccc4OCC3C2)c1)N1CCCCC1` (centres unmarked) [Compound 13, 1-(3-(1-(1,2,3,4,4a,5-hexahydropyrazino(1.2-c)-1,4-benzoxazinyl)methyl)benzoyl)pipridine Sesquioxalate]: the Ki on dopamine D2 (setting [1]) is greater than 1000 nM.

For `Cc1ccc(N(CC2=NCCN2)c2cccc(O)c2)cc1` [phentolamine], the Ki on serotonin 5-HT1A came out at 59 nM.

In the case of `O=C(c1cccc(CN2CCc3c([nH]c4ccccc34)C2)c1)N1CCc2ccccc21` [Compound 11, 1-(3-(2-(1,2,3,4-Tetrahydro-9H-pyrido(3.4-b)indolyl)methyl)benzoyl)indoline Monofumarate], at dopamine D2, the Ki was greater than 1000 nM.

In the case of `O=C(c1cccc(CN2CCN3c4ccccc4OCC3C2)c1)N1CCc2ccccc21` (centres unmarked) [Compound 14, 1-(3-(3-(1,2,3,4,4a,5-Hexahydropyrazino(1,2-c)-1,4-benzoxazinyl)methyl)benzoyl)iondoline 1.2 Oxalate], the Ki on dopamine D2 (setting [1]) was greater than 1000 nM.

On dopamine D2, `O=C(c1cccc(CN2CCc3c([nH]c4ccccc34)C2)c1)N1CCCCC1` [Compound 9, 1-(3-(2-(1,2,3,4-Tetrahydro-9H-pyrido(3,4-b)indolyl)methyl)-benzoyl)piperidine Monooxalate 0.3 Hydrate] showed an inhibitory constant (Ki) of 374 nM.
